# Data taken from publication PMC6199744, “Development of Chemical Proteomics for the Folateome and Analysis of the Kinetoplastid Folateome” (ACS Infectious Diseases, 2018).
# Like-named read-outs stand apart in the source and are kept apart here.
# Experiments:
# Type in all cases: binding
# [1] = target: T1, HeLa cell extract proteins (Homo sapiens, UniProt Q05639); conditions: protein EEF1A2; HeLa
# T1 construct: endogenous in cells; host or cells: HeLa cell extract
# T1 sequence (Q05639 1-463): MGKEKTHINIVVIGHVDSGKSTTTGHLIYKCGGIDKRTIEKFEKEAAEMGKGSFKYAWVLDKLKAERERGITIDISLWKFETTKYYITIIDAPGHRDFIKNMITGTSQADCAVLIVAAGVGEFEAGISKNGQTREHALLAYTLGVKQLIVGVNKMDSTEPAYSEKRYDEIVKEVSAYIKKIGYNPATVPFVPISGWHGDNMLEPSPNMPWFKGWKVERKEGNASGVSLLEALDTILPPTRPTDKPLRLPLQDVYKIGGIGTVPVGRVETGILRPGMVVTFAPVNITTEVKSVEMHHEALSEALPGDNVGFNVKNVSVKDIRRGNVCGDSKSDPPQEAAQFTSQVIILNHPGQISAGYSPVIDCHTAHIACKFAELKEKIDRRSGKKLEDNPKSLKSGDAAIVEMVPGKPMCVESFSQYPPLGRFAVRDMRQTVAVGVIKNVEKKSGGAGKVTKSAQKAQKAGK
# [2] = target: T2, HeLa cell extract proteins (Homo sapiens, UniProt Q9UBB4); conditions: protein Ataxin-10; HeLa
# T2 construct: endogenous in cells; host or cells: HeLa cell extract
# T2 sequence (Q9UBB4 1-475): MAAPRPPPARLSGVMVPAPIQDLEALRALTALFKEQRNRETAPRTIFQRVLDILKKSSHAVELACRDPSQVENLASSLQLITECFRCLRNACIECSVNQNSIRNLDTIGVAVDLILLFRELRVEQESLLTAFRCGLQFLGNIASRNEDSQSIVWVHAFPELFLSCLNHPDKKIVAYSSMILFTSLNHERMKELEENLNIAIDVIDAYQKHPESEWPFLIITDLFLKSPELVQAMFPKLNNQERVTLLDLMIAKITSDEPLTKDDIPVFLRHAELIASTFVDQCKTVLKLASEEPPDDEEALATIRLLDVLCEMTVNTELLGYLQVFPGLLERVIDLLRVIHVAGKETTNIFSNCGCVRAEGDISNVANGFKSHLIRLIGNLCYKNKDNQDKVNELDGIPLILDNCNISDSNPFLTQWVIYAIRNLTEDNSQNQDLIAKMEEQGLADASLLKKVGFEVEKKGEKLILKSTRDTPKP
# [3] = target: T3, HeLa cell extract proteins (Homo sapiens, UniProt P35268)
# T3 construct: endogenous in cells; host or cells: HeLa cell extract
# [4] = target: T4, HeLa cell extract proteins (Homo sapiens, UniProt P52565)
# T4 construct: endogenous in cells; host or cells: HeLa cell extract
# T4 sequence (P52565 1-204): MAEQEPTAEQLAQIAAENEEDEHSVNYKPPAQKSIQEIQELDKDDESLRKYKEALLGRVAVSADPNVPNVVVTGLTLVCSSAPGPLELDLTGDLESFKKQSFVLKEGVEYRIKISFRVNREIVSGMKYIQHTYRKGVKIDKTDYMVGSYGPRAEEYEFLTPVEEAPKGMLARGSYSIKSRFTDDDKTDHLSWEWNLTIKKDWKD
# [5] = target: T5, HeLa cell extract proteins (Homo sapiens, UniProt P53597)
# T5 construct: endogenous in cells; host or cells: HeLa cell extract
# T5 sequence (P53597 41-346): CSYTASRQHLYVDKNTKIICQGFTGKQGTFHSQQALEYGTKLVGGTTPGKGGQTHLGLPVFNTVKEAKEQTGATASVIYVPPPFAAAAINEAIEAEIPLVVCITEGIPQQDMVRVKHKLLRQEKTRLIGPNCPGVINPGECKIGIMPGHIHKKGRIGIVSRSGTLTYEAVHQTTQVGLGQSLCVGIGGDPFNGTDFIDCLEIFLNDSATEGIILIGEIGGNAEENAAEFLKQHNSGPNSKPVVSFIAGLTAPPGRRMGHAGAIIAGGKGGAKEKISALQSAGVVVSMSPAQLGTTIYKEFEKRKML
# [6] = target: T6, HeLa cell extract proteins (Homo sapiens, UniProt Q14157)
# T6 construct: endogenous in cells; host or cells: HeLa cell extract
# T6 sequence (Q14157 1-1087): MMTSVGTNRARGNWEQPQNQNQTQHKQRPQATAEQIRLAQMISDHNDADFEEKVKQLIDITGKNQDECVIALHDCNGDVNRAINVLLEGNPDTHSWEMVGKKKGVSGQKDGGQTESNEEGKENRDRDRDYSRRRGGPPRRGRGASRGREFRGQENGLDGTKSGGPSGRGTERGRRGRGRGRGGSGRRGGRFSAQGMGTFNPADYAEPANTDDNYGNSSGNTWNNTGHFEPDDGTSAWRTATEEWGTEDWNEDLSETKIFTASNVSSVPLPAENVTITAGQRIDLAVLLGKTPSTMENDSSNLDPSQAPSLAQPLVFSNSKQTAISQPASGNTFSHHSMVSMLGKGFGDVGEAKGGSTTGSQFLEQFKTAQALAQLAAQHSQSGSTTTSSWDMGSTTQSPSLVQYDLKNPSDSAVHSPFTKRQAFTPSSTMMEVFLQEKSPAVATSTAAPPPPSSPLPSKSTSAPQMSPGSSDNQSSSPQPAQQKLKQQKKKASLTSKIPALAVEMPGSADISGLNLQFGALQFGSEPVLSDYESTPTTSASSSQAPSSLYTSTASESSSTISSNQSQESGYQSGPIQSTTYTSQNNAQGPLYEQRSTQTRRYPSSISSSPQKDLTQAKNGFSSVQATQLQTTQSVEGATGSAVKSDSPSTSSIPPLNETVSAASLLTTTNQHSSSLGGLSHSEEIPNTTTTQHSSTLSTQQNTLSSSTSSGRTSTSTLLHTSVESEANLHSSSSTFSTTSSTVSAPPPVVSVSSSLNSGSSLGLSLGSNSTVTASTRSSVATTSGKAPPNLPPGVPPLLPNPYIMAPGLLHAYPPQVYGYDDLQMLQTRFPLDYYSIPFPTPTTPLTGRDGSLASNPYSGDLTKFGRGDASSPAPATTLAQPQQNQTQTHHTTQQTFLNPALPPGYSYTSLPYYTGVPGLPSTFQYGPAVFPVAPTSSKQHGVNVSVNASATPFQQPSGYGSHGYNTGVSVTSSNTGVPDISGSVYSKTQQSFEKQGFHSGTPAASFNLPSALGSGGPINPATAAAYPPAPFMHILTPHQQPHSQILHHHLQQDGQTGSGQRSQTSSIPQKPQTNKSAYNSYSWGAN
# [7] = target: T7, HeLa cell extract proteins (Homo sapiens, UniProt Q7Z6Z7)
# T7 construct: endogenous in cells; host or cells: HeLa cell extract
# [8] = target: T8, HeLa cell extract proteins (Homo sapiens, UniProt Q93008)
# T8 construct: endogenous in cells; host or cells: HeLa cell extract
# T8 sequence (Q93008 whole entry): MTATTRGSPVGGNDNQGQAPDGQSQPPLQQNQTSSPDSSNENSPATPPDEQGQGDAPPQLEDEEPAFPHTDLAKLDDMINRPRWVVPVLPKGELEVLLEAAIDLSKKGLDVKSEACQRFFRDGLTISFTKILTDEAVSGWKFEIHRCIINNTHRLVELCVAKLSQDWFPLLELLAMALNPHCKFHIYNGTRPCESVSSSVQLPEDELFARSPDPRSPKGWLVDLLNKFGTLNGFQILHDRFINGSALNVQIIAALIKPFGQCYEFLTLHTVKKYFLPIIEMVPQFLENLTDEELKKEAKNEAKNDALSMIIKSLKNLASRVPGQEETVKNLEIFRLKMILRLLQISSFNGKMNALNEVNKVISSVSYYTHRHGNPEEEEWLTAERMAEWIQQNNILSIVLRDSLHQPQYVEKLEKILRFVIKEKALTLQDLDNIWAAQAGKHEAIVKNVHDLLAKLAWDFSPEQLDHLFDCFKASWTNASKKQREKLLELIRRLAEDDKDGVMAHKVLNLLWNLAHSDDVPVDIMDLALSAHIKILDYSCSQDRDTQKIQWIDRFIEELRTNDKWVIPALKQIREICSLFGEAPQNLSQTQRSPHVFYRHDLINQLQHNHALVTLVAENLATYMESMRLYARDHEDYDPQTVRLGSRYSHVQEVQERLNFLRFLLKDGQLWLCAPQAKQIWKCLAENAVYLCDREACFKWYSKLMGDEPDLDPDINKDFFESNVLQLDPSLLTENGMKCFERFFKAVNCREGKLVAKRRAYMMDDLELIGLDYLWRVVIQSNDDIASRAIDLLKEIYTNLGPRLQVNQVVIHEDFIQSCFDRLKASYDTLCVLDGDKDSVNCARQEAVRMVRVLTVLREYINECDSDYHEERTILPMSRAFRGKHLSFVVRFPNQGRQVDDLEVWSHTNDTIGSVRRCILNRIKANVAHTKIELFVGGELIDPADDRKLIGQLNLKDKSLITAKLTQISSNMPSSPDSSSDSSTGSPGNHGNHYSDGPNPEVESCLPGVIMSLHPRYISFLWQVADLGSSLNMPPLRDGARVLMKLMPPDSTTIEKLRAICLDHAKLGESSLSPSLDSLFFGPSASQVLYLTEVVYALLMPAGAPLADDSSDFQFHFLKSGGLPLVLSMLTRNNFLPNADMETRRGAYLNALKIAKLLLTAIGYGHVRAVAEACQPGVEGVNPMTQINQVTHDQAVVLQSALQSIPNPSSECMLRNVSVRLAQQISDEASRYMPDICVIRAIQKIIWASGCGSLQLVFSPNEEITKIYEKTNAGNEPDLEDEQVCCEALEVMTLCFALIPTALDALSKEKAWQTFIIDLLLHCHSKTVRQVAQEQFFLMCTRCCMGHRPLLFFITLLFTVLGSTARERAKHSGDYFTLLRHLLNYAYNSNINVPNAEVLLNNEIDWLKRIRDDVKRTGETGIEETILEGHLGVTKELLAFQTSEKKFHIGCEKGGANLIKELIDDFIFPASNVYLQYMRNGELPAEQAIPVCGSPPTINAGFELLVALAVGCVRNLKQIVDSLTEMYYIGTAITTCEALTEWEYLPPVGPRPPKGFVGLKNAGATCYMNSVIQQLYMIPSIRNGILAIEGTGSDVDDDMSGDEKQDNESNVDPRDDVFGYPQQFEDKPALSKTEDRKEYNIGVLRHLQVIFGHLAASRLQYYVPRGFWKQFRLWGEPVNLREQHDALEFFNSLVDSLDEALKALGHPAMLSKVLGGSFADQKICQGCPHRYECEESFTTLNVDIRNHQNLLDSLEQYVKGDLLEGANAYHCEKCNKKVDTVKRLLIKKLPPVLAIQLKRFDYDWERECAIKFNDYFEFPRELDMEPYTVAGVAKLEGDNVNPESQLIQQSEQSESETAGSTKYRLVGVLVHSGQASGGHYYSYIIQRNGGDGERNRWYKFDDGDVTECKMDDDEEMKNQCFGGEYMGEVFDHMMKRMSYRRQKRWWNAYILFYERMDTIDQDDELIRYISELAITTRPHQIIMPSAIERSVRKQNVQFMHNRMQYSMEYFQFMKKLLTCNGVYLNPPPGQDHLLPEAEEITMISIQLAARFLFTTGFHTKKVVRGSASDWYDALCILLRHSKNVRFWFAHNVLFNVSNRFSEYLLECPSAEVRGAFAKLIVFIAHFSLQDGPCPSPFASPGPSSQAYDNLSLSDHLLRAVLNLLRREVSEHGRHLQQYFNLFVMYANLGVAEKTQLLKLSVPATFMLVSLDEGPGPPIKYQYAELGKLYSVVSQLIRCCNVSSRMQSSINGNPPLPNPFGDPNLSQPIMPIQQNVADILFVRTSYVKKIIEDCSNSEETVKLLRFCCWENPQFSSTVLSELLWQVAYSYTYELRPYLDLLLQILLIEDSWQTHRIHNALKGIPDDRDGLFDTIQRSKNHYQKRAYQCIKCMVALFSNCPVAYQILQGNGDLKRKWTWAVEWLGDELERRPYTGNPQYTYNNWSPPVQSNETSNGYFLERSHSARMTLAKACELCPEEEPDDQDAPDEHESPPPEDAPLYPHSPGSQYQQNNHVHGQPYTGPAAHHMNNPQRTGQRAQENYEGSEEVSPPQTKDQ
# [9] = target: T9, HeLa cell extract proteins (Homo sapiens, UniProt Q9UBQ5)
# T9 construct: endogenous in cells; host or cells: HeLa cell extract
# T9 sequence (Q9UBQ5 whole entry): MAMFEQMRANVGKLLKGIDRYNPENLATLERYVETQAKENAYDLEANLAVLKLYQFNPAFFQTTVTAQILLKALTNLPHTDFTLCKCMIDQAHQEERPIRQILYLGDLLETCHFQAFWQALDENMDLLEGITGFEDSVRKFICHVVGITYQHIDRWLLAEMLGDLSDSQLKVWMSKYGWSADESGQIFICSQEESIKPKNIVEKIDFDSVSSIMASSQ
SMILES,fold changes relative to vehicle control [1],fold changes relative to vehicle control [2],"fold changes relative to vehicle control ([3]; HeLa, protein RPL22)","fold changes relative to vehicle control ([4]; HeLa, protein ARHGDIA)","fold changes relative to vehicle control ([5]; protein SUCLG1, HeLa)","fold changes relative to vehicle control ([6]; HeLa, protein UBAP2L)","fold changes relative to vehicle control ([7]; HeLa, protein HUWE1)","fold changes relative to vehicle control ([8]; HeLa, captured protein USP9X)","fold changes relative to vehicle control ([9]; protein EIF3K, HeLa)",further results
Nc1nc2cccc(-c3ccccc3)c2n1Cc1ccc(Cl)c(Cl)c1 [compound 3],0.82,1.04,–,–,–,–,–,–,–,–
"Nc1nc2[nH]cc(CCc3ccc(C(=O)N[C@@H](CCC(=O)O)C(=O)O)cc3)c2c(=O)[nH]1 [PTX, pemetrexed]",–,–,–,–,–,–,–,–,–,fold changes relative to vehicle control [3]: 0.98; fold changes relative to vehicle control [4]: 1.08; fold changes relative to vehicle control [5]: 1.09; fold changes relative to vehicle control [6]: 0.98; fold changes relative to vehicle control [7]: 1.02; fold changes relative to vehicle control [8]: 1.17; fold changes relative to vehicle control [9]: 0.97
"Nc1nc2c(c(=O)[nH]1)N(C=O)C(CNc1ccc(C(=O)N[C@@H](CCC(=O)O)C(=O)O)cc1)CN2 (stereo partly shown) [LEU, leucovorin]",–,–,0.86,1.03,0.95,0.9,0.98,1.13,0.94,–
CCCCCCOc1cccc(Cc2cnc(N)nc2N)c1 [compound 2],2.29,1.4,–,–,–,–,–,–,–,–
NCCOCCOCC(=O)Nc1nc2ncc(CNc3ccc(C(=O)NC(CCC(=O)O)C(=O)O)cc3)nc2c(=O)[nH]1 (stereo not shown) [compound 6],–,–,1.2,1.18,1.3,1.1,1.23,1.31,1.06,–
CCCCCCOc1ccc(Cc2cnc(N)nc2N)cc1 [compound 1],1.09,1.14,–,–,–,–,–,–,–,–
NCCCNc1ccc(C(=O)NC(CCC(=O)O)C(=O)O)cc1 (stereo not shown) [compound 7],–,–,1.19,1.08,0.81,1.08,0.96,1.26,1.1,–
